Measurements: PubChem BioAssay AID1996
Values after ≈ are worked out from the molar mass of the structure shown.

Conditions: buffer; pH 7.4; 200.0 µM

Row | Compound | solubility kinetic
1 | COC(=O)c1c(C)[nH]c(C=Nc2ccc(OC)cc2)c1C | 30 µg/mL (≈ 105 µM)
2 | Cc1cc(C(=O)OCC(=O)NCc2ccco2)c(C)o1 | > 41.6 µg/mL
3 | O=C1c2ccccc2C(=O)N1c1ccc(Cc2ccncc2)cc1 | 44.9 µg/mL (≈ 143 µM)
4 | Fc1cc(F)c(NC(=S)N2CCOCC2)c(F)c1 | > 41.4 µg/mL
5 | Nc1c(C(=O)[O-])sc2nc3c(cc12)CCCC3 | 23.2 µg/mL
6 | CN(c1ccccc1)c1nc(N)c([N+](=O)[O-])c(NCc2ccccc2)n1 | < 0.1 µg/mL
7 | Brc1ccc(COn2ccnc2)cc1 | > 38 µg/mL
8 | Cc1sc2ncnc(SCC(=O)Nc3ccc(S(=O)(=O)N4CCOCC4)cc3)c2c1C | 5.4 µg/mL (≈ 11.3 µM)
9 | NC(=O)c1cc(-c2cccnc2)nc2ccc(Br)cc12 | 2.2 µg/mL (≈ 6.7 µM)
10 | O=C(c1c(F)c(F)c(F)c(F)c1F)N1CCN(Cc2ccc3c(c2)OCO3)CC1 | 2.3 µg/mL (≈ 5.55 µM)
11 | CCOC(=O)c1sc(SC)nc1N | 22.2 µg/mL (≈ 102 µM)
12 | CCOc1ccc(Nc2cc(=O)[nH]c(=O)[nH]2)cc1 | 7.6 µg/mL (≈ 30.7 µM)
13 | COC(=O)CSc1[nH]c2ccc(F)cc2c1[N+](=O)[O-] | 41.8 µg/mL (≈ 147 µM)
14 | CC(C)(C)CC(=O)Nc1cc2c3c(c1)CCN3C(=O)CC2 | > 43 µg/mL
15 | COc1ccccc1CCC(=O)NCCCn1ccc2ccccc21 | 27.2 µg/mL (≈ 80.8 µM)
16 | COc1ccc(S(=O)(=O)NCCOc2ccccc2)cc1F | 2.4 µg/mL (≈ 7.38 µM)
17 | Nc1cccc2cnccc12 | 1.4 µg/mL (≈ 9.71 µM)
18 | CN(C)C(=O)COc1ncnc2sc(-c3ccccc3)cc12 | 13.9 µg/mL (≈ 44.4 µM)
19 | Cc1ccccc1CSCC(=O)Nc1ccccc1F | 27.9 µg/mL (≈ 96.4 µM)
20 | CN(Cc1cnccn1)Cc1nc(Cc2ccccc2Cl)no1 | 43.9 µg/mL (≈ 133 µM)
21 | CN1C(=O)C2(OCC(CO)([N+](=O)[O-])CO2)c2ccccc21 (stereo not drawn) | > 44.1 µg/mL
22 | CC(C)(C)CN1CCN(Cc2cccnc2)CC1CCO (stereo not drawn) | > 43.7 µg/mL
23 | COc1ccc(CN2CCSCC2)c(C)c1C | 5.7 µg/mL (≈ 22.7 µM)
24 | COc1ccc(C2CC(=O)NC(=O)C2)cc1 | 22.3 µg/mL (≈ 102 µM)

Further lines, results first:

Row | solubility kinetic | Compound
25 | 49.6 µg/mL (≈ 144 µM) | COC(=O)COc1cccc(NC(=O)c2cc(OC)cc(OC)c2)c1
26 | 54.8 µg/mL (≈ 142 µM) | COc1ccc(N2CCN(C(CNC(=O)C(C)(C)C)c3ccco3)CC2)cc1 (stereo not drawn)
27 | < 0.2 µg/mL | COc1cccc(-c2nc(NC3CCCC3)c3ccccc3n2)c1O
28 | > 50.1 µg/mL | CN(C)CCCOC(=O)c1sc2ccccc2c1Cl.Cl
29 | 30.7 µg/mL (≈ 108 µM) | Cc1csc(NC(=O)c2cc(C)nc3ccccc23)n1
30 | > 36.9 µg/mL | CC(=O)N[C@H](Cc1c[nH]c2ccccc12)C(=O)O
31 | > 41.9 µg/mL | CCC(=O)Nc1ccc2c(c1)ncn2-c1ccccc1C
32 | > 49.1 µg/mL | COC(=O)c1ccc(C2NCCc3cc(OC)c(OC)cc32)cc1 (stereo not drawn)
33 | 17.2 µg/mL (≈ 49.4 µM) | CC1CCCCC12NC(=O)N(CC(=O)OCc1ccccc1F)C2=O (stereo not drawn)
34 | 7 µg/mL (≈ 26.1 µM) | O=C(Nc1ccc(Br)cc1)C1CCCC1
35 | 24.3 µg/mL (≈ 79.6 µM) | Cc1cc(SCC(=O)c2cccc([N+](=O)[O-])c2)nc(=O)[nH]1
36 | < 0.4 µg/mL | Cc1cccc(C)c1N1CCN(S(=O)(=O)c2ccccc2)CC1
37 | > 70.1 µg/mL | COc1ccc(S(=O)(=O)N2CCOCC2)cc1NC(=O)CSc1nnc(C2CC2)n1C
38 | 12.7 µg/mL (≈ 30.6 µM) | Cc1ccc(S(=O)(=O)N2CCN(C(=O)Cn3c(=O)oc4ccccc43)CC2)cc1
39 | 2.8 µg/mL (≈ 8.63 µM) | Cc1cc(C)cc(NC(=O)CN2CCN(c3ccccn3)CC2)c1
40 | 1.1 µg/mL (≈ 2.94 µM) | COc1ccc(C(=O)N2CCc3c([nH]c4ccccc34)C2C(F)(F)F)cc1 (stereo not drawn)
41 | < 0.3 µg/mL | Cc1cnc(NC(=O)C2CCC(C(C)(C)C)CC2)s1 (stereo not drawn)
42 | 43.2 µg/mL (≈ 144 µM) | COC(=O)c1cc(S(=O)(=O)N2CCCC(C)C2)cn1C (stereo not drawn)
43 | > 45.7 µg/mL | O=C(NC1CCC1)C1CCC(=O)N(Cc2cccc(F)c2)C1 (stereo not drawn)
44 | 8.1 µg/mL (≈ 26.6 µM) | CC(C)(CNc1ccc([N+](=O)[O-])cc1C#N)N1CCOCC1
45 | > 38.4 µg/mL | CC(=O)Oc1ccc(C(=O)Nc2cccnc2)cc1
46 | 1.2 µg/mL (≈ 3.75 µM) | Cn1c(C(=O)N2CCC(C(N)=O)CC2)cc2cc(Cl)ccc21
47 | 6.2 µg/mL (≈ 17.4 µM) | COCCn1c(=O)[nH]c2cc(C(=O)Nc3cccc(F)c3)ccc2c1=O
48 | < 0.6 µg/mL | CC(NC(=O)c1cccc(Cl)c1)C1CC2CCC1C2 (stereo not drawn)
